Tests used:
[1] = Chemical stability (open glass jar, 40° C., 75% relative humidity); format: physicochemical; details: 50 mg, after one week
Method: After one week, the amount of test compound remaining was determined.

Aspergillus fumigatus [2] = assay: Determination of fungal susceptibility (MIC); format: cell-based; details: CYG medium, 5 days at 30° C., growth to 35% of control or less
Method: (§1) A panel of Candida isolates plus single isolates of the dermatophytes Microsporum canis, Trichophyton rubrum and T. mentagrophytes; Aspergillus fumigates, and Cryptococcus neoformans were used to evaluate the activity of the test compounds in vitro. Inocula were prepared as broth cultures (yeasts) or as suspensions of fungal material made from agar slope cultures (moulds). The test compounds were pipetted from DMSO stock solution into water to provide a series of 10-fold dilutions. The fungal inocula were suspended in the growth medium CYG (F. C. Odds, Journal of Clinical Microbiology, 29, (2735-2740, 1991) at approximately 50,000 colony-forming units (CFU) per ml and added to the aqueous test drugs. The cultures were set up in the 96 wells of plastic microdilution plates and they were incubated for 2 days at 37° C. (Candida spp.) or for 5 days at 30° C. (other fungi). Growth in the microcultures was measured by their optical density (OD) measured at a wavelength of 405 nm. The OD for cultures with test compounds was calculated as a percentage of the control, drug-free OD. Inhibition of growth to 35% of control or less was recorded as significant inhibition.
(§2) Minimal inhibitory concentration (MICs; in 10^−6 M) of intermediate 2 as the major metabolite and some of the compounds of formula (I) for Candida glabrata, Candida krusel, Candida parapsilosis, Candida albicans, Candida kefyr, Candida tropicalis, Microsporum canis, Trichophyton rubrum, Trichophyton mentagrophytes, Cryptococcus neoformans, Aspergillus fumigatus are listed in table 8.

Candida albicans [3] = assay: Determination of fungal susceptibility (MIC); format: cell-based; details: CYG medium, 2 days at 37° C., growth to 35% of control or less
Method: as §1, §2

Candida glabrata = assay: Determination of fungal susceptibility (MIC); format: cell-based; details: CYG medium, 2 days at 37° C., growth to 35% of control or less
Method: as §1, §2

Candida kefyr = assay: Determination of fungal susceptibility (MIC); format: cell-based; details: CYG medium, 2 days at 37° C., growth to 35% of control or less
Method: as §1, §2

Candida krusei = assay: Determination of fungal susceptibility (MIC); format: cell-based; details: CYG medium, 2 days at 37° C., growth to 35% of control or less
Method: as §1, §2

Candida parapsilosis = assay: Determination of fungal susceptibility (MIC); format: cell-based; details: CYG medium, 2 days at 37° C., growth to 35% of control or less
Method: as §1, §2

Candida tropicalis = assay: Determination of fungal susceptibility (MIC); format: cell-based; details: CYG medium, 2 days at 37° C., growth to 35% of control or less
Method: as §1, §2

Cryptococcus neoformans = assay: Determination of fungal susceptibility (MIC); format: cell-based; details: CYG medium, 5 days at 30° C., growth to 35% of control or less
Method: as §1, §2

Microsporum canis = assay: Determination of fungal susceptibility (MIC); format: cell-based; details: CYG medium, 5 days at 30° C., growth to 35% of control or less
Method: as §1, §2

[4] = system: Trichophyton mentagrophytes; assay: Determination of fungal susceptibility (MIC); format: cell-based; details: CYG medium, 5 days at 30° C., growth to 35% of control or less
Method: as §1, §2

Trichophyton rubrum = assay: Determination of fungal susceptibility (MIC); format: cell-based; details: CYG medium, 5 days at 30° C., growth to 35% of control or less
Method: as §1, §2

Aspergillus fumigatus [5] = assay: Disseminated aspergillosis in guinea-pigs; format: in vivo; details: for CFU/g (liver): culture-positive livers post mortem; for % neg (total percentage culture-negative deep tissues): liver, spleen, kidney, lung and brain
Method: (§3) Specific pathogen-free (SPF) guinea-pigs (weighing 400-500 g) were used in all experiments. A catheter was placed into the left jugular vein of the animals that were treated by intravenous infusion, the vein was ligated, and the catheter was connected to a microprocessor-controlled infusion pump. The animals were infected with Aspergillus fumigatus (4,000 CFU/g body weight) or with Candida albicans (40,000 CFU/g body weight) either via the lateral vein of the penis or via the implanted catheter. Intravenous treatments (5 mg/kg/day) began 1 hour after infection. The test formulations were then administered on subsequent days as two, 1 hour infusions daily, separated by a period of 5 hours, for a total of 19 infusions or 9.5 days. Oral treatments with the test compounds (5 mg/kg/day) begun 1 hour after infection and were repeated twice daily up to the tenth day after infection (a total of 19 treatments. For each group of tested animals (number of tested animals per group given in column “N”), the mean survival time (MST) in days was recorded as well as the % survivors (% surv). Animals of each group which died during the experiment and those that survived the experiment and were killed, were investigated for counts of Aspergillus fumigatus and Candida albicans in deep tissue (liver, spleen, kidney, lung and brain) post mortem. The remaining CFU/g in the culture-positive livers was measured and expressed in table 9 (after intravenous treatment) and table 10 (after oral treatment) as mean log10 CFU/g. The columns “%neg” in tables 9 and 10 express the total percentage culture-negative deep tissues after the treatment.

Candida albicans [6] = assay: Disseminated candidosis in guinea-pigs; format: in vivo; details: for CFU/g (liver): culture-positive livers post mortem; for % neg (total percentage culture-negative deep tissues): liver, spleen, kidney, lung and brain
Method: as §3

[7] = i.v. treatment 5 mg/kg/day, 19 infusions, 9.5 days
[8] = oral treatment 5 mg/kg/day, twice daily, 19 treatments

Row | Compound | Stability (amount of test compound remaining) [1] [%] | MIC (Aspergillus fumigatus [2]) | MIC (Candida albicans [3]) | MIC (Candida glabrata) | MIC (Candida kefyr) | MIC (Candida krusei) | MIC (Candida parapsilosis) | MIC (Candida tropicalis) | MIC (Cryptococcus neoformans) | MIC (Microsporum canis) | MIC [4] | MIC (Trichophyton rubrum) | CFU/g (liver) (Aspergillus fumigatus [5]; i.v. treatment 5 mg/kg/day) [mean log10 CFU/g] | CFU/g (liver) (Aspergillus fumigatus [5]; oral treatment 5 mg/kg/day) [mean log10 CFU/g] | % surv (% survivors) (Aspergillus fumigatus [5]; [7]) [%] | MST (mean survival time) (Aspergillus fumigatus [5]; [7]) [days] | % neg (total percentage culture-negative deep tissues) (Aspergillus fumigatus [5]; i.v. treatment 5 mg/kg/day) [%] | % neg (total percentage culture-negative deep tissues) (Aspergillus fumigatus [5]; oral treatment 5 mg/kg/day) [%] | % surv (% survivors) (Aspergillus fumigatus [5]; [8]) [%] | MST (mean survival time) (Aspergillus fumigatus [5]; [8]) [days] | further results
1 | C[C@H](OC(=O)CCN)[C@H](C)n1ncn(-c2ccc(N3CCN(c4ccc(OC[C@@H]5CO[C@@](Cn6cncn6)(c6ccc(F)cc6F)O5)cc4)CC3)cc2)c1=O.O.O=C(O)C[C@H](O)C(=O)O.O=C(O)C[C@H](O)C(=O)O (relative stereo) [Compound 12, [2S-[2α,4α-[(R*,R*)]]]-2-[4-[4-[4-[4-[[2-(2,4-difluorophenyl)-2-(1H-1,2,4-triazol-1-ylmethyl)-1,3-dioxolan-4-yl]methoxy]phenyl]-1-piperazinyl]phenyl]-4,5-dihydro-5-oxo-1H-1,2,4-triazol-1-yl]-1-methylpropyl β-alanine (S)-hydroxybutanedioate(1:2) monohydrate] | 96.1 | – | – | – | – | – | – | – | – | – | – | – | – | – | – | – | – | – | – | – | –
2 | CC(N)C(=O)OC(C)C(C)n1ncn(-c2ccc(N3CCN(c4ccc(OCC5COC(Cn6cncn6)(c6ccc(F)cc6F)O5)cc4)CC3)cc2)c1=O.O.O=C(O)CCC(=O)O (stereo not drawn) [Compound 10] | 31.0 | – | – | – | – | – | – | – | – | – | – | – | – | – | – | – | – | – | – | – | –
3 | CC(OC(=O)CCN)C(C)n1ncn(-c2ccc(N3CCN(c4ccc(OCC5COC(Cn6cncn6)(c6ccc(F)cc6F)O5)cc4)CC3)cc2)c1=O.O.O=C(O)C(=O)O (stereo not drawn) [Compound 13] | 98.3 | – | – | – | – | – | – | – | – | – | – | – | – | – | – | – | – | – | – | – | –
4 | CCN(CC)CCC(=O)OC(C)C(C)n1ncn(-c2ccc(N3CCN(c4ccc(OCC5COC(Cn6cncn6)(c6ccc(F)cc6F)O5)cc4)CC3)cc2)c1=O.O.O=C(O)C=CC(=O)O (stereo not drawn) [Compound 15] | 90.4 | – | – | – | – | – | – | – | – | – | – | – | – | – | – | – | – | – | – | – | –
5 | CCN(CC)CC(=O)OC(C)C(C)n1ncn(-c2ccc(N3CCN(c4ccc(OCC5COC(Cn6cncn6)(c6ccc(F)cc6F)O5)cc4)CC3)cc2)c1=O.O=C(O)C=CC(=O)O (stereo not drawn) [Compound 16, [2S-[2α,4α-[(R*,R*)]]]-2-[4-[4-[4-[4-[[2-(2,4-difluorophenyl)-2-(1H-1,2,4-triazol-1-ylmethyl)-1,3-dioxolan-4-yl]methoxy]phenyl]-1-piperazinyl]phenyl]-4,5-dihydro-5-oxo-1H-1,2,4-triazol-1-yl]-1-methylpropyl N,N-diethylglycine (E)-2-butenedioate] | 100.3 | 1 10^−6 M | <0.1 10^−6 M | 10 10^−6 M | <0.1 10^−6 M | 1 10^−6 M | <0.1 10^−6 M | <0.1 10^−6 M | 1 10^−6 M | 1 10^−6 M | 1 10^−6 M | <0.1 10^−6 M | 3.4 | 3.1 | 16.7 | 6.8 | 29 | 48 | 40 | 6.5 | CFU/g (liver) (Candida albicans [6]; i.v. treatment 5 mg/kg/day): 0 mean log10 CFU/g; CFU/g (liver) (Candida albicans [6]; oral treatment 5 mg/kg/day): 0 mean log10 CFU/g; % surv (% survivors) (Candida albicans [6]; [7]): 66.7%; MST (mean survival time) (Candida albicans [6]; [7]): 9.3 days; % neg (total percentage culture-negative deep tissues) (Candida albicans [6]; i.v. treatment 5 mg/kg/day): 79%; % neg (total percentage culture-negative deep tissues) (Candida albicans [6]; oral treatment 5 mg/kg/day): 73%; % surv (% survivors) (Candida albicans [6]; [8]): 90%; MST (mean survival time) (Candida albicans [6]; [8]): 9.6 days
6 | CC(C)C(N)C(=O)OC(C)C(C)n1ncn(-c2ccc(N3CCN(c4ccc(OCC5COC(Cn6cncn6)(c6ccc(F)cc6F)O5)cc4)CC3)cc2)c1=O (stereo not drawn) [Compound 18] | 101.7 | 1 10^−6 M | <0.1 10^−6 M | 10 10^−6 M | <0.1 10^−6 M | 1 10^−6 M | <0.1 10^−6 M | <0.1 10^−6 M | 1 10^−6 M | 10 10^−6 M | 1 10^−6 M | 10 10^−6 M | 3.1 | 3.2 | 16.7 | 5.3 | 29 | 20 | 0 | 5.2 | CFU/g (liver) (Candida albicans [6]; i.v. treatment 5 mg/kg/day): 0 mean log10 CFU/g; CFU/g (liver) (Candida albicans [6]; oral treatment 5 mg/kg/day): 0 mean log10 CFU/g; % surv (% survivors) (Candida albicans [6]; [7]): 66.7%; MST (mean survival time) (Candida albicans [6]; [7]): 9.2 days; % neg (total percentage culture-negative deep tissues) (Candida albicans [6]; i.v. treatment 5 mg/kg/day): 92%; % neg (total percentage culture-negative deep tissues) (Candida albicans [6]; oral treatment 5 mg/kg/day): 68%; % surv (% survivors) (Candida albicans [6]; [8]): 100%; MST (mean survival time) (Candida albicans [6]; [8]): 10 days
7 | CC(C)CC(N)C(=O)OC(C)C(C)n1ncn(-c2ccc(N3CCN(c4ccc(OCC5COC(Cn6cncn6)(c6ccc(F)cc6F)O5)cc4)CC3)cc2)c1=O (stereo not drawn) [Compound 21] | 100.3 | 1 10^−6 M | 0.1 10^−6 M | 10 10^−6 M | 0.1 10^−6 M | 1 10^−6 M | 0.1 10^−6 M | 0.1 10^−6 M | 1 10^−6 M | 1 10^−6 M | 1 10^−6 M | <0.1 10^−6 M | 3.7 | 3.0 | 0 | 5.7 | 46 | 55 | 40 | 7.0 | CFU/g (liver) (Candida albicans [6]; i.v. treatment 5 mg/kg/day): 2.7 mean log10 CFU/g; CFU/g (liver) (Candida albicans [6]; oral treatment 5 mg/kg/day): 0 mean log10 CFU/g; % surv (% survivors) (Candida albicans [6]; [7]): 16.7%; MST (mean survival time) (Candida albicans [6]; [7]): 6.5 days; % neg (total percentage culture-negative deep tissues) (Candida albicans [6]; i.v. treatment 5 mg/kg/day): 75%; % neg (total percentage culture-negative deep tissues) (Candida albicans [6]; oral treatment 5 mg/kg/day): 83%; % surv (% survivors) (Candida albicans [6]; [8]): 90%; MST (mean survival time) (Candida albicans [6]; [8]): 9.6 days
8 | [2S-[2α,4α[(R*,R*)]]]-4-[4-[4-[4-[[2-(2,4-difluorophenyl)-2-(1H-1,2,4-triazol-1-ylmethyl)-1,3-dioxolan-4-yl]methoxy]-phenyl]-1-piperazinyl]phenyl]-2,4-dihydro-2-(2-hydroxy-1-methylpropyl)-3H-1,2,4-triazol-3-one [Interm. 2a] | – | 1 10^−6 M | 10 10^−6 M | 10 10^−6 M | <0.1 10^−6 M | 1 10^−6 M | 1 10^−6 M | 1 10^−6 M | 1 10^−6 M | 1 10^−6 M | 1 10^−6 M | 1 10^−6 M | – | – | – | – | – | – | – | – | –

Reference: patent publication US6703506B2, “Amino acid ester containing azole antifungals” (Janssen Pharmaceutica, N.V., priority 1997, dated 2004)
